{"source": "patent US7902394B2", "about": "“Calcilytic compounds” (GlaxoSmithKline LLC, priority 2006, dated 2011)", "note": "pIC50: −log10 of the molar value.", "data": [{"molecular_target": "T1, human calcium receptor (Homo sapiens, UniProt P41180)", "T1 construct": "expressed in transfected cells; host or cells: HEK 293 4.0-7", "T1 sequence (P41180 20-1078)": "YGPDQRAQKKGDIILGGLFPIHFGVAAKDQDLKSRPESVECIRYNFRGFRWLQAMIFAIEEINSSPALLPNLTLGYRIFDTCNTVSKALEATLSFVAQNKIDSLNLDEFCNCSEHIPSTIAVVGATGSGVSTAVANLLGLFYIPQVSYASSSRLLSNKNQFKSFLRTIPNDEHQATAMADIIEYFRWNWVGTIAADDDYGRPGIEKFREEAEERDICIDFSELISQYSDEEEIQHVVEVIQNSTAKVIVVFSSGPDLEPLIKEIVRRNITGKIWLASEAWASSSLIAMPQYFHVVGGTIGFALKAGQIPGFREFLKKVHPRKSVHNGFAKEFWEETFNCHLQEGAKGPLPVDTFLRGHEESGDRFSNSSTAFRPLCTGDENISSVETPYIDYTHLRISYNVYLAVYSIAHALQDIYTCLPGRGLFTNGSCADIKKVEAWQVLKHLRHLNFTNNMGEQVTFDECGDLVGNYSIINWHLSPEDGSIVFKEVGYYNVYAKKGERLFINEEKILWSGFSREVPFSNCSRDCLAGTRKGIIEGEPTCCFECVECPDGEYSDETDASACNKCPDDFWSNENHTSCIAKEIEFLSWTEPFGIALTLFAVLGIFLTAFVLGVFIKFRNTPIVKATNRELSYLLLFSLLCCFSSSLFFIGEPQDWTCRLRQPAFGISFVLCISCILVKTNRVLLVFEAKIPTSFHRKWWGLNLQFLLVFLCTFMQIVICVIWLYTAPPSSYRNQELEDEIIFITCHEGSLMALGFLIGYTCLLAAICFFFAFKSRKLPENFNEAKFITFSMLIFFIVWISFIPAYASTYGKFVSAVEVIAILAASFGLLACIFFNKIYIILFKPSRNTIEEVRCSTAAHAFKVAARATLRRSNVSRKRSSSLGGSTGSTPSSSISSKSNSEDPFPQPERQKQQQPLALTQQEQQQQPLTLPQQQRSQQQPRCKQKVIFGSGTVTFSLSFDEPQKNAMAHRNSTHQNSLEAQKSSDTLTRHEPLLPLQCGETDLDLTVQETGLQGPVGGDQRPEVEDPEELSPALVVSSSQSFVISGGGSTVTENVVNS", "assay": "Calcium Receptor Inhibitor Assay (block of intracellular Ca2+ increase elicited by extracellular Ca2+, fluo-3)", "format": "cell-based", "details": "HEK 293 4.0-7 cells stably expressing the human calcium receptor; 10 uM was the limit of the assay; read-out: IC50 for blocking increases of intracellular Ca2+ elicited by extracellular Ca2+", "procedure": "Calcilytic activity was measured by determining the IC50 of the test compound for blocking increases of intracellular Ca^2+ elicited by extracellular Ca^2+ in HEK 293 4.0-7 cells stably expressing the human calcium receptor. HEK 293 4.0-7 cells were constructed as described by Rogers et al., J. Bone Miner. Res. 10 Suppl. 1:S483, 1995 (hereby incorporated by reference to the extent required to conduct the present assay). Intracellular Ca^2+ increases were elicited by increasing extracellular Ca^2+ from 1 to 1.75 mM. Intracellular Ca^2+ was measured using fluo-3, a fluorescent calcium indicator.\nCells were maintained in T-150 flasks in selection media (DMEM supplemented with 10% fetal bovine serum and 200 ug/mL hygromycin B), under 5% CO2:95% air at 37° C. and were grown up to 90% confluency. The medium was decanted and the cell monolayer was washed twice with phosphate-buffered saline (PBS) kept at 37° C. After the second wash, 6 mL of 0.02% EDTA in PBS was added and incubated for 4 minutes at 37° C. Following the incubation, cells were dispersed by gentle agitation. Cells from 2 or 3 flasks were pooled and pelleted (100×g). The cellular pellet was resuspended in 10-15 mL of SPF-PCB+ and pelleted again by centrifugation. This washing was done twice.\nSulfate- and phosphate-free parathyroid cell buffer (SPF-PCB) contained 20 mM Na-Hepes, pH 7.4, 126 mM NaCl, 5 mM KCl, and 1 mM MgCl2. SPF-PCB was made up and stored at 4° C. On the day of use, SPF-PCB was supplemented with 1 mg/mL of D-glucose and 1 mM CaCl2 and then split into two fractions. To one fraction, bovine serum albumin (BSA; fraction V, ICN) was added at 5 mg/mL (SPF-PCB+). This buffer was used for washing, loading and maintaining the cells. The BSA-free fraction was used for diluting the cells in the cuvette for measurements of fluorescence.\nThe pellet was resuspended in 10 mL of SPF-PCB+ containing 2.2 uM fluo-3 (Molecular Probes) and incubated at room temperature for 35 minutes. Following the incubation period, the cells were pelleted by centrifugation. The resulting pellet was washed with SPF-PCB+. After this washing, cells were resuspended in SPF-PCB+ at a density of 1-2×10^6 cells/mL.\nFor recording fluorescent signals, 300 uL of cell suspension were diluted in 1.2 mL of SPF buffer containing 1 mM CaCl2 and 1 mg/mL of D-glucose. Measurements of fluorescence were performed at 37° C. with constant stirring using a spectrofluorimeter. Excitation and emission wavelengths were measured at 485 and 535 nm, respectively. To calibrate fluorescence signals, digitonin (5 mg/mL in ethanol) was added to obtain Fmax, and the apparent Fmin was determined by adding Tris-EGTA (2.5 M Tris-Base, 0.3 M EGTA). The concentration of intracellular calcium was calculated using the following equation: Intracellular calcium=[…]; where Kd=400 nM.\nTo determine the potential calcilytic activity of test compounds, cells were incubated with test compound (or vehicle as a control) for 90 seconds before increasing the concentration of extracellular Ca^2+ from 1 to 2 mM. Calcilytic compounds were detected by their ability to block, in a concentration-dependent manner, increases in the concentration of intracellular Ca^2+ elicited by extracellular Ca^2+.", "values": [{"smiles": "Cc1ccc(CC(C)(C)NC[C@@H](O)c2cc(CCC(=O)O)cc(F)c2F)s1", "note": "[Example 16, 3-[3-((1S)-2-{[1,1-dimethyl-2-(5-methyl-2-thienyl)ethyl]amino}-1-hydroxyethyl)-4,5-difluorophenyl]propanoic acid]", "pIC50": "< 5.00"}, {"smiles": "COc1ccc(CCC(C)(C)NC[C@@H](O)c2cc(CCC(=O)O)cc(F)c2F)cc1", "note": "[Example 17, 3-{3-[(1S)-2-([1,1-dimethyl-3-[4-(methyloxy)phenyl]propyl}amino)-1-hydroxyethyl]-4,5-difluorophenyl]propanoic acid]", "pIC50": "< 5.00"}, {"smiles": "Cc1ccc(CC(C)(C)NC[C@@H](O)c2cc(CCC(=O)O)cc(F)c2F)cc1F", "note": "[Example 18, 3-[3,4-difluoro-5-((1S)-2-{[2-(3-fluoro-4-methylphenyl)-1,1-dimethylethyl]amino}-1-hydroxyethyl)phenyl]propanoic acid]", "pIC50": "< 5.00"}, {"smiles": "CSc1ccc(CC(C)(C)NC[C@@H](O)c2cc(CCC(=O)O)cc(F)c2F)cc1", "note": "[Example 19, 3-{3-[(1S)-2-({1,1-dimethyl-2-[4-(methylthio)phenyl]ethyl}amino)-1-hydroxyethyl]-4,5-difluorophenyl}propanoic acid]", "pIC50": "< 5.00"}, {"smiles": "CC(C)(Cc1ccc(C(C)(C)C)cc1)NC[C@@H](O)c1cc(CCC(=O)O)cc(F)c1F", "note": "[Example 20, 3-{3-[(1S)-2-({2-[4-(1,1-dimethylethyl)phenyl]-1,1-dimethylethyl}amino)-1-hydroxyethyl]-4,5-difluorophenyl}propanoic acid]", "pIC50": "< 5.00"}, {"smiles": "CC(C)(Cc1cccs1)NC[C@@H](O)c1cc(CCC(=O)O)cc(F)c1F", "note": "[Example 21, 3-[3-((1S)-2-{[1,1-dimethyl-2-(2-thienyl)ethyl]amino}-1-hydroxyethyl)-4,5-difluorophenyl]propanoic acid]", "pIC50": "< 5.00"}, {"smiles": "CC(C)(CCc1ccccc1)NC[C@@H](O)c1cc(CCC(=O)O)cc(F)c1F", "note": "[Example 22, 3-(3-{(1S)-2-[(1,1-dimethyl-3-phenylpropyl)amino]-1-hydroxyethyl}-4,5-difluorophenyl)propanoic acid]", "pIC50": "< 5.00"}, {"smiles": "CC(C)(Cc1ccc(Br)cc1)NC[C@@H](O)c1cc(CCC(=O)O)cc(F)c1F", "note": "[Example 23, 3-[3-((1S)-2-{[2-(4-bromophenyl)-1,1-dimethylethyl]amino}-1-hydroxyethyl)-4,5-difluorophenyl]propanoic acid]", "pIC50": "< 5.00"}, {"smiles": "CC(C)(Cc1ccc(Cl)s1)NC[C@@H](O)c1cc(CCC(=O)O)cc(F)c1F", "note": "[Example 24, 3-[3-((1S)-2-{[2-(5-chloro-2-thienyl)-1,1-dimethylethyl]amino}-1-hydroxyethyl)-4,5-difluorophenyl]propanoic acid]", "pIC50": "< 5.00"}]}, {"molecular_target": "T2, Human Parathyroid Calcium Receptor (“HuPCaR”) (Homo sapiens, UniProt P41180)", "T2 construct": "expressed in transfected cells; host or cells: HEK 293 4.0-7 (plasma membrane preparation)", "T2 sequence (P41180 20-1078)": "T1 sequence (P41180 20-1078)", "assay": "Calcium Receptor Binding Assay (3H ligand displacement, HEK 293 4.0-7 membranes)", "details": "2 nM 3H compound, 4° C. 30 min, 10 uM was the limit of the assay", "procedure": "HEK 293 4.0-7 cells stably transfected with the Human Parathyroid Calcium Receptor (“HuPCaR”) were scaled up in T180 tissue culture flasks. Plasma membrane was obtained by polytron homogenization or glass douncing in buffer (50 mM Tris-HCl pH 7.4, 1 mM EDTA, 3 mM MgCl2) in the presence of a protease inhibitor cocktail containing 1 uM Leupeptin, 0.04 uM Pepstatin, and 1 mM PMSF. Aliquoted membrane was snap frozen and stored at −80° C. ^3H labeled compound was radiolabeled to a radiospecific activity of 44 Ci/mmole and was aliquoted and stored in liquid nitrogen for radiochemical stability.\nA typical reaction mixture contained 2 nM ^3H compound ((R,R)—N-4′-Methoxy-t-3-3′-methyl-1′-ethylphenyl-1-(1-naphthyl)ethylamine), or ^3H compound (R)—N-[2-Hydroxy-3-(3-chloro-2-cyanophenoxy)propyl]-1,1-dimethyl-2-(4-methoxyphenyl)ethylamine with 4-10 ug membrane in homogenization buffer containing 0.1% gelatin and 10% EtOH in a reaction volume of 0.5 mL. Incubation was performed in 12×75 polyethylene tubes in an ice water bath. To each tube 25 uL of test sample in 100% EtOH was added, followed by 400 uL of cold incubation buffer, and 25 uL of 40 nM ^3H-compound in 100% EtOH for a final concentration of 2 nM. The binding reaction was initiated by the addition of 50 uL of 80-200 ug/mL HEK 293 4.0-7 membrane diluted in incubation buffer, and allowed to incubate at 4° C. for 30 min. Wash buffer was 50 mM Tris-HCl containing 0.1% PEI. Nonspecific binding was determined by the addition of 100-fold excess of unlabeled homologous ligand, and was generally 20% of total binding. The binding reaction was terminated by rapid filtration onto 1% PEI pretreated GF/C filters using a Brandel Harvestor. Filters were placed in scintillation fluid and radioactivity assessed by liquid scintillation counting.", "values": [{"smiles": "CC(C)(Cc1ccccc1)NC[C@@H](O)c1cc(CCC(=O)O)cc(F)c1F", "note": "[Example 13, 3-(3-{(1S)-2-[(1,1-dimethyl-2-phenylethyl)amino]-1-hydroxyethyl}-4,5-difluorophenyl)propanoic acid]", "pIC50": "< 5.00"}, {"smiles": "COc1ccc(CCC(C)(C)NC[C@@H](O)c2cc(CCC(=O)O)cc(F)c2F)cc1", "note": "[Example 17, 3-{3-[(1S)-2-([1,1-dimethyl-3-[4-(methyloxy)phenyl]propyl}amino)-1-hydroxyethyl]-4,5-difluorophenyl]propanoic acid]", "pIC50": "< 5.00"}, {"smiles": "CC(C)(Cc1cccs1)NC[C@@H](O)c1cc(CCC(=O)O)cc(F)c1F", "note": "[Example 21, 3-[3-((1S)-2-{[1,1-dimethyl-2-(2-thienyl)ethyl]amino}-1-hydroxyethyl)-4,5-difluorophenyl]propanoic acid]", "pIC50": "< 5.00"}]}]}
